Results as given in paper PMC4442108, “Preclinical Validation of the Heparin-Reactive Peptide p5+14 as a Molecular Imaging Agent for Visceral Amyloidosis” (Molecules, 2015).
Where no end group is shown, it is not given here. [ ]: non-standard residue; d: D form. Tyr(3-I) = N[C@@H](Cc1ccc(O)c(I)c1)C(=O)O

Tests used:
[1] = Biodistribution, SPECT/CT and micro-autoradiography of 125I-p5+14 in healthy wild type mice; format: in vivo, mouse (WT)
Description: (§1) For serial SPECT/CT imaging in cohorts (n = 3) of AA and healthy wild type (WT) mice, peptide p5+14 (100 µg) was radioiodinated with ~4 mCi of ^125I (Perkin Elmer, Waltham, MA, USA), using 20 µg chloramine T as the oxidizing agent. After quenching the reaction with 20 µg sodium metabisulfite, the radiolabeled peptide was diluted into 0.1% sterile gelatin in PBS and free radioiodide removed by size exclusion chromatography on a 5 mL PD10 (GE Healthcare) solid phase equilibrated with 0.1% gelatin/PBS. Fractions 0f 200 µL were collected and those containing the maximal radioactivity (indicative of ^125I-p5+14) were pooled, and the product’s radiochemical purity was established by SDS polyacrylamide gel electrophoresis (PAGE) analyzed by phosphor imaging (Cyclone Storage Phosphor System, Perkin Elmer, Shelton, CT, USA).
Imaging was performed as described. Briefly, WT or AA amyloid mice (n = 3) were injected with ~3 µg of ^125I-p5+14, 125 µCi (specific activity ~40 µCi/µg) in the lateral tail vein. After the appropriate uptake time (1, 4, 24, and 48 h), mice were euthanized by isoflurane inhalation overdose. SPECT images were acquired using an Inveon trimodality imaging platform (Siemens Preclinical Solution, Knoxville, TN, USA; [64]) running Inveon Acquisition Workplace software (ver. 2.0). Low energy (^125I; 25–45 keV) gamma photons were acquired at each of 60, 16-sec projections with 90 mm of bed travel. A 1 mm-diameter, 5-pinhole (Mouse Whole Body) collimator was used at 30 mm from the center of the field of view. […]
(§2) Samples of liver, spleen, pancreas, kidneys, small and large intestines, stomach and heart were harvested post mortem from every mouse undergoing imaging with ^125I-p5+14 [45]. A sample of each was placed into a tared, plastic vial, weighed and the ^125I radioactivity measured using an automated Wizard 3 gamma counter (1480 Wallac Gamma Counter, Perkin Elmer). The biodistribution data were expressed as % injected dose/g tissue (%ID/g). […]

AA amyloid = biological target: T1, AA amyloid (Mus musculus, UniProt P05367); assay: Biodistribution, SPECT/CT and micro-autoradiography of 125I-p5+14 in mice with systemic AA amyloidosis; format: in vivo, mouse (H2/IL-6 transgenic)
T1 construct: organs known to develop AA amyloid in this mouse model; from tissue; host or cells: live H2/IL-6 transgenic Balb/c mice; liver, spleen, heart, kidney, pancreas
T1 sequence (P05367 20-95 limits assumed): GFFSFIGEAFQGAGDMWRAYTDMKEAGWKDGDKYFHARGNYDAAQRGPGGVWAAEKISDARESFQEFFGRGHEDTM
Description: Systemic visceral AA amyloidosis was induced in H2-Ld-huIL-6 Tg Balb/c transgenic mice that constitutively express the human interleukin-6 transgene by iv injection of 10 µg of purified, splenic AA amyloid (amyloid enhancing factor; AEF) in 100 µL of sterile phosphate-buffered saline (PBS). Peptide was evaluated in mice at 4–6 wk post AEF injection when amyloid load was significant.
as §1
Imaging was performed as described. Briefly, WT or AA amyloid mice (n = 3) were injected with ~3 µg of ^125I-p5+14, 125 µCi (specific activity ~40 µCi/µg) in the lateral tail vein. After the appropriate uptake time (1, 4, 24, and 48 h), mice were euthanized by isoflurane inhalation overdose. […]
as §2

For “GGG[Tyr(3-I)]SKAQKAQAKQAKQAQKAQKAQAKQAKQAQKAQKAQAKQAKQ [125I-p5+14]”, the “micro-autoradiographic distribution of radiolabeled peptide in tissues” value ([1]; WT mice, 1 h pi, 6 µm tissue sections) was “not retained by any cells or macroscopic structures in healthy tissues”, the whole-body retention half-life ([1]; WT mice, iv ~3 µg 125I-p5+14, gamma counting up to 48 h pi, exponential fit, n = 3 per time point) was ~ 1.5 h and the tissue uptake at 2 h ([1]; mouse, in vivo, iv, 3 ug, healthy mice, 2 h pi, read-out: retention of radioactivity in any organ) was less than 0.6 %ID/g. For the same substance, the “micro-autoradiographic distribution of radiolabeled peptide in tissues” value (AA amyloid; AA mice, 1 h pi, 6 µm tissue sections compared with Congo red) was “co-localized with amyloid in diseased tissues”, the “125I-p5+14 retention in the spleen” value (AA amyloid; mice deemed amyloid-free by Congo red histochemical staining (cohort n = 34)) was greater than 3 %ID/g and the whole-body retention half-life (AA amyloid; mice with AA amyloidosis, iv ~3 µg 125I-p5+14, gamma counting up to 48 h pi, n = 3 per time point) was greater than 48 h.
